Here are results for 8 molecules from patent US5747545A, “Method of preventing NMDA receptor complex-mediated Neuronal damage” (priority 1995, dated 1998).

The test system of data set [1] is NMDA receptor (cortical neurons). The data set is described as follows: Patch-clamp recording of NMDA-evoked current in cortical neurons. The class given is cell-based, rat (Sprague-Dawley). Conditions: for Effect on NMDA-evoked current: 50 μM NMDA + 1 μM glycine, -60 mV, DTT 2 mM, NTG 500 μM, DTNB 500 μM, 2 min exposure, washout, FIG. 4. On the technique in general: Patch clamp records ionic current or voltage across a cell membrane.

Data set [2] relates to NMDA receptor (rat cortical neurons in culture). Put plainly: Digital fura-2 imaging of NMDA-evoked intracellular [Ca2+] in cultured cortical neurons. Type of data set: cell-based, rat (Sprague-Dawley). Conditions: for Effect on NMDA-evoked [Ca2+]i response (SNOC experiment): after 2 mM DTT, 3 min exposure to 100 μM SNOC, NMDA 50 μM, FIG. 5A, P<0.01.
The test system is the same in data set [3]. Described as above. The class given is cell-based, rat (Sprague-Dawley). To be noted: 50 μM NMDA; Examples 1-2; NTG 100 μM in Example 2. As for the experimental part: The concentration of intracellular free Ca^2+ ([Ca^2+ ]i) is measured in neonatal cortical neurons by digital imaging microscopy with the Ca^2+ sensitive fluorescent dye fura 2, as follows. The same cortical neuronal cultures as described above are used. During Ca^2+ measurements, unless otherwise stated the fluid bathing the neurons consists of Hanks' balanced salts: 137.6 mM NaCl, 1 mM NaHCO3, 0.34 mM Na2 HPO4, 0.44 mM KH2 PO4, 5.36 mM KCl, 1.25 mM CaCl2, 0.5 mM MgSO4, 0.5 mM MgCl2, 5 mM Hepes NaOH, 22.2 mM glucose, and sometimes with phenol red indicator (0.001% v/v); pH 7.2. NMDA (in the absence Mg^++), glutamate, and other substances are usually applied to the neurons by pressure ejection after dilution in this bath solution. Neuronal [Ca^2+ ]i is analyzed with fura 2-acetoxy-methyl ester (AM) as described [Grynkiewicz, et al., J. Biol. Chem. 260:3440 (1985); Williams et al., Nature 318:558 (1985); Connor et al., J. Neurosci. 7:1384 (1987); Connor et al., Science 240:649 (1988); Cohan et al., J. Neurosci. 7:3588 (1987); Mattson, et al., ibid, 9:3728 (1989)]. After adding Eagle's minimum essential medium containing 10 μM fura 2-AM to the neurons, the cultures are incubated at 37° C. in a 5% CO2 /95% air humidified chamber and then rinsed. The dye is loaded, trapped, and deesterified within 1 hour, as determined by stable fluorescence ratios and the effect of the Ca^2+ ionophore ionomycin on [Ca^2+ ]i is measured. During Ca^2+ imaging, the cells are incubated in a solution of Hepes-buffered saline with Hanks' balanced salts. The [Ca^2+ ]i is calculated from ratio images that are obtained by measuring the fluorescence at 500 nm that is excited by 350 and 380 nm light with a DAGE MTI 66 SIT or QUANTEX QX-100 Intensified CCD camera mounted on a Zeiss Axiovert 35 microscope. Exposure time for each picture is 500 ms. Analysis is performed with a Quantex (Sunnyvale, Calif.) QX7-210 image-processing system. Since cells are exposed to ultraviolet light only during data collection (generally less than a total of 20 s per cell), bleaching of fura 2 is minimal.
In this experiment, the effect of NTG on intracellular [Ca^++ ] increases induced by NMDA were followed using digital [Ca^++ ] imaging techniques, based on the dye fura-2.
Specifically, the model for NMDA-mediated neurotoxicity involves exposure of cultured rat cortical neurons to NMDA in the presence of glycine (a co-agonist).
Cortical cultures were derived from embryonic (fetal day 15 or 16) Sprague-Dawley rats as described previously (Dichter, 1978; Rosenberg and Aizenman, 1989). […]

Data set [4] concerns cortical neurons (NMDA receptor-mediated neurotoxicity). The data set is described as follows: Neurotoxicity assay: survival of cortical neurons after DTT and NMDA exposure. The class given is cell-based, rat. Conditions: chemical reduction of redox modulatory site. As for the experimental part:
To test compounds for their ability to prevent neurotoxicity, neuronal cell death may be assayed as follows. […] The candidate compound is tested by addition (e.g., in a series of concentrations ranging from 0.1 nM-10 mM) after DTT treatment but before NMDA treatment. The candidate compound can be added for minutes, hours, or even days prior to its washout period. […] Neuronal cultures are scored for cell survival after this overnight incubation because NMDA toxicity is often delayed by several hours following NMDA exposure.
Using the neurotoxicity assay described above, the compounds sodium nitroprusside and nitroglycerin were tested individually for their ability to increase survival of neonatal cortical neurons.
As shown in FIG. 6A-6D, surviving neurons are expressed as the percentage of viable neurons in the control culture dishes in the same experiment. The concentrations of drugs were as follows: APV (2 mM), NTG (100 μM), SNP (400 μM), DTT (0.5-2 mM), and reduced Hb (500 μM). […] Values are mean ±SEM for experiments run in triplicate on sibling cultures on separate days (total of 32 experiments). Astericks indicate significant difference compared with the value for DTT-NMDA exposure, P<0.05 (ANOVA followed by Scheffe multiple comparison of means.

The conditions of data set [5]: adult treated for Parkinson's symptoms for several weeks; reversible after discontinuation; cited from earlier work.
The subject of data set [6] is cortical neurons (neuronal survival). To be noted: SNOC or purified peroxynitrite incubation; listed as OONO^-. As for the experimental part: S-nitrosocysteine was added as a source of NO.cndot. to cerebrocortical cultures (Lei et al., (1992) Neuron 8:1087-1099; Stamler et al., (1992) Science 258:1898-1902).
Peroxynitrite leads to lipid peroxidation and massive oxidation of sulfhydryls (Radi et al., (1991) J. Biol. Chem. 266:4244-4250; Radi et al., (1991) Arch. Biochem. Biophys. 288:481-487).
Values are expressed as mean+s.e.m. (n=9). Statistical comparisons were performed by an analysis of variance followed by a Scheffe multiple comparison of means (*, P<0.01 compared to control; **, P<0.05 compared to control; .dagger., P<0.01 compared to nitroso compound+SOD/catalase).
Specifically, the data in FIG. 7 were generated using mixed neuronal and glial cortical cultures from neonatal rats, as described previously (Lei, et al., (1992) Neuron 8:1087-1099). In at least three separate experiments, triplicate cultures were incubated overnight in Earle's buffered saline solution (EBSS) containing various concentrations of SNOC, peroxynitrite, SOD, catalase, or glutamate. […] The culture fluid was assayed for […] (LDH) as an indicator of neuronal survival by measuring the absorbance at 450 nm (Koh et al., (1987) J. Neurosci. Meth. 20:83-90). The cultures were also scored for neuronal viability by cell counting, generally with 0.2% trypan blue, after fixation in 2.5% glutaraldehyde, as described above. Neurons from cultures grown on 15 mm diameter cover slips were counted in a masked fashion in ~30 microscopic fields at 200 x.

Structures are written as SMILES. Entries after “also recorded” stand apart in the source; their conditions may differ.

Turning to `O[C@H](CS)[C@H](O)CS` (racemic) [DTT, dithiothreitol], in data set [1], the “Effect on NMDA-evoked current” value is “enhanced the NMDA-evoked current; also recorded: increased NMDA-activated currents”. In addition, the “Effect on NMDA-evoked [Ca2+]i response (SNOC experiment)” value in data set [2] is given as “the NMDA-evoked response was increased; also recorded: fully reversed the inhibitory effect of S-nitrosocysteine”. The “Effect on NMDA-evoked [Ca2+]i response” value in data set [3] was “reversed the effect of NTG”. The “Effect on neurotoxic effect of NMDA” value in data set [4] is listed as “increases the neurotoxic effect of NMDA”. Regarding `O[C@H](CS)[C@H](O)CS` (relative stereo) [dithiothreitol (DTT)], in data set [3], the “Effect on NMDA-evoked [Ca2+]i response” value is recorded as “further enhanced”. Turning to `O=C(O)c1cc(SSc2ccc([N+](=O)[O-])c(C(=O)O)c2)ccc1[N+](=O)[O-]` [DTNB, 5,5dithio-bis-2-nitrobenzoic acid], the “Effect on NMDA-evoked current” value in data set [1] was “decreased the responses slightly”. Also, the “Effect on amplitude of NMDA evoked current following alkylation with NEM” value in data set [1] (after 1-5 mM NEM) is given as “neither NTG nor DTNB significantly affected the amplitude of NMDA evoked current”. In addition, in data set [3], the “Effect on NMDA-evoked [Ca2+]i response” value is “decreased the NMDA evoked [Ca^2+ ]i responses”. With `CCN1C(=O)C=CC1=O` [NEM, N-ethylmalemide], the “Effect of NEM pretreatment on the SNOC effect on NMDA-evoked [Ca2+]i” value in data set [2] (NEM pretreatment, FIG. 5B) is “blocks the effect of SNOC”. For the molecule `CN[C@H](CC(=O)O)C(=O)O` [NMDA, N-methyl-D-aspartate], in data set [2] (NMDA 50 μM after 2 mM DTT, FIG. 5), the “Maximum NMDA response obtained after exposure to DTT, [Ca2+]i” value was ~ 750 nM [Ca2+]i.

As for `NC(CSN=O)C(=O)O` (stereo not shown) [S-nitrosocysteine (SNOC)], in data set [2], the “Effect on NMDA-evoked [Ca2+]i response (SNOC experiment)” value is on record as “inhibited”. For `Cl.NC12CC3CC(CC(C3)C1)C2` [amantadine, 1-adamantanamine hydrochloride], the “Visual loss (case report)” value in data set [5] is reported as “one case report of visual loss in an adult patient”. Consider `O=NOO` [peroxynitrite], for which the “Killing of cortical neurons” value in data set [6] was “kills neurons in a dose-dependent fashion”.
